Measurements as given in article PMC11060137, “A Phase I Study of KIN-3248, an Irreversible Small-molecule Pan-FGFR Inhibitor, in Patients with Advanced FGFR2/3-driven Solid Tumors” (Cancer Research Communications, 2024).
Read-outs that look alike come from different tables or passages of the source.

What was measured:
[1] = system: patients with advanced solid tumors harboring FGFR2 and/or FGFR3 gene alterations
Description: The study was divided into two parts. […] The secondary objectives included antitumor activity in Part A, determination of pharmacokinetics and pharmacodynamics.
Dose level 1 was started at 5 mg oral daily, and patients were escalated on study to 50 mg daily. On the basis of ongoing efficacy, toxicity, and pharmacokinetic analysis, a planned amendment added additional cohorts up to 80 mg orally daily to define the MTD/RP2D. […] One cycle was 28 days of continuous dosing. Intrapatient dose escalation after safely tolerating two cycles was allowed if per protocol criteria were met. Patients continued therapy until evidence of disease progression, intolerance or unacceptable toxicity, withdrawal of consent, investigator decision, sponsor decision, or death.
Patients were evaluated with medical history, physical examinations, and clinical laboratory on days 1, 8, 15, and 22 of cycle 1; days 1 and 15 from cycle 2 through cycle 5; and day 1 of each subsequent cycle. […] Except for hyperphosphatemia, adverse events (AE) were graded according to the NCI-CTCAE (Common Terminology Criteria for Adverse Events) Version 5.0 at each study visit and for approximately 30 days following end of treatment.
The primary endpoints for the overall study, included: the incidence of DLTs, incidence of AEs, treatment-emergent AEs (TEAE), and treatment-related AEs (TRAE).

wild-type FGFR = system: wild-type FGFR; design: method as in PMID 38267212; details: cited from earlier work
[2] = system: gatekeeper (V564F) resistance mutation; design: method as in PMID 38267212; details: cited from earlier work
[3] = system: molecular break (N549H) resistance mutation; design: method as in PMID 38267212; details: cited from earlier work
[4] = system: FGFR2/3-driven cholangiocarcinoma, gastric, and bladder cancer xenograft models; design: method as in PMID 38267212; details: cited from earlier work

C=CC(=O)N1C[C@@H](n2nc(C#Cc3c(F)cc4c(ncn4C4CC4)c3F)c(C(N)=O)c2NC)C[C@@H]1COC [KIN-3248]
not reached: MTD ([1]; doses up to 50 mg orally daily)
10 (18.5%): TEAE Metabolism and nutrition disorders, n (%) ([1]; CTCAE (V5) Grade 3, N = 54)
no treatment-related deaths: Treatment-related deaths ([1]; in vivo)
7 (13.0%): Patient with any TEAE, n (%) ([1]; CTCAE (V5) Grade 4–5, N = 54)
1 (1.9%): TEAE Hypercalcemia, n (%) ([1]; CTCAE (V5) Grade 3, N = 54) | TEAE Musculoskeletal and connective tissue disorders, n (%) ([1]; CTCAE (V5) Grade 3, N = 54) | TEAE Respiratory, thoracic, and mediastinal disorders, n (%) ([1]; CTCAE (V5) Grade 3, N = 54) | TEAE General disorders and administration site conditions, n (%) ([1]; CTCAE (V5) Grade 4–5, N = 54) | TEAE Nervous system disorders, n (%) ([1]; CTCAE (V5) Grade 4–5, N = 54) | TEAE Respiratory, thoracic, and mediastinal disorders, n (%) ([1]; CTCAE (V5) Grade 4–5, N = 54)
5 (9.3%): TEAE Gastrointestinal disorders, n (%) ([1]; CTCAE (V5) Grade 3, N = 54)
14.8%: Treatment-related grade 3 hyperphosphatasemia ([1]; only event reported in more than 1 patient)
8 (14.8%): TEAE Hyperphosphatemia, n (%) ([1]; CTCAE (V5) Grade 3, N = 54)
0: TEAE Blood creatinine increased, n (%) ([1]; CTCAE (V5) Grade 3, N = 54) | TEAE Constipation, n (%) ([1]; CTCAE (V5) Grade 3, N = 54) | TEAE Decreased appetite, n (%) ([1]; CTCAE (V5) Grade 3, N = 54) | TEAE Diarrhea, n (%) ([1]; CTCAE (V5) Grade 3, N = 54) | TEAE Dry mouth, n (%) ([1]; CTCAE (V5) Grade 3, N = 54) | TEAE Eye disorders, n (%) ([1]; CTCAE (V5) Grade 3, N = 54) | TEAE Fatigue, n (%) ([1]; CTCAE (V5) Grade 3, N = 54) | TEAE General disorders and administration site conditions, n (%) ([1]; CTCAE (V5) Grade 3, N = 54) | TEAE Nausea, n (%) ([1]; CTCAE (V5) Grade 3, N = 54) | TEAE Psychiatric disorders, n (%) ([1]; CTCAE (V5) Grade 3, N = 54) | TEAE Skin and subcutaneous tissue disorders, n (%) ([1]; CTCAE (V5) Grade 3, N = 54) | TEAE Stomatitis, n (%) ([1]; CTCAE (V5) Grade 3, N = 54) | TEAE Alanine aminotransferase increased, n (%) ([1]; CTCAE (V5) Grade 4–5, N = 54) | TEAE Anemia, n (%) ([1]; CTCAE (V5) Grade 4–5, N = 54) | TEAE Aspartate aminotransferase increased, n (%) ([1]; CTCAE (V5) Grade 4–5, N = 54) | TEAE Blood and lymphatic system disorders, n (%) ([1]; CTCAE (V5) Grade 4–5, N = 54) | TEAE Blood creatinine increased, n (%) ([1]; CTCAE (V5) Grade 4–5, N = 54) | TEAE Constipation, n (%) ([1]; CTCAE (V5) Grade 4–5, N = 54) | TEAE Decreased appetite, n (%) ([1]; CTCAE (V5) Grade 4–5, N = 54) | TEAE Diarrhea, n (%) ([1]; CTCAE (V5) Grade 4–5, N = 54) | TEAE Dry mouth, n (%) ([1]; CTCAE (V5) Grade 4–5, N = 54) | TEAE Eye disorders, n (%) ([1]; CTCAE (V5) Grade 4–5, N = 54) | TEAE Fatigue, n (%) ([1]; CTCAE (V5) Grade 4–5, N = 54) | TEAE Gastrointestinal disorders, n (%) ([1]; CTCAE (V5) Grade 4–5, N = 54) | TEAE Hypercalcemia, n (%) ([1]; CTCAE (V5) Grade 4–5, N = 54) | TEAE Hyperphosphatemia, n (%) ([1]; CTCAE (V5) Grade 4–5, N = 54) | TEAE Metabolism and nutrition disorders, n (%) ([1]; CTCAE (V5) Grade 4–5, N = 54) | TEAE Musculoskeletal and connective tissue disorders, n (%) ([1]; CTCAE (V5) Grade 4–5, N = 54) | TEAE Nausea, n (%) ([1]; CTCAE (V5) Grade 4–5, N = 54) | TEAE Psychiatric disorders, n (%) ([1]; CTCAE (V5) Grade 4–5, N = 54) | TEAE Skin and subcutaneous tissue disorders, n (%) ([1]; CTCAE (V5) Grade 4–5, N = 54) | TEAE Stomatitis, n (%) ([1]; CTCAE (V5) Grade 4–5, N = 54) | TEAE Vascular disorders, n (%) ([1]; CTCAE (V5) Grade 4–5, N = 54)
dose-dependent tumor inhibition: Tumor inhibition [4]
low nanomolar: IC50 (wild-type FGFR) | IC50 [2] | IC50 [3]
2 (3.7%): TEAE Anemia, n (%) ([1]; CTCAE (V5) Grade 3, N = 54) | TEAE Aspartate aminotransferase increased, n (%) ([1]; CTCAE (V5) Grade 3, N = 54) | TEAE Investigations, n (%) ([1]; CTCAE (V5) Grade 3, N = 54) | TEAE Nervous system disorders, n (%) ([1]; CTCAE (V5) Grade 3, N = 54) | TEAE Infections and infestations, n (%) ([1]; CTCAE (V5) Grade 4–5, N = 54) | TEAE Investigations, n (%) ([1]; CTCAE (V5) Grade 4–5, N = 54)
Four: TEAE deaths ([1]; three related to progressive disease, one to a cardiovascular accident)
3 (5.6%): TEAE Blood and lymphatic system disorders, n (%) ([1]; CTCAE (V5) Grade 3, N = 54) | TEAE Vascular disorders, n (%) ([1]; CTCAE (V5) Grade 3, N = 54)
4 (7.4%): TEAE Infections and infestations, n (%) ([1]; CTCAE (V5) Grade 3, N = 54)
